Data as given in ChEMBL document CHEMBL3853264 (Medchemcomm, 2016).

Legend:
[1] = Intrinsic clearance in rat liver microsomes; assay type: ADME; details: read-out: CLH
[2] = Intrinsic clearance in human liver microsomes; assay type: ADME; details: read-out: CLH
[3] = Fraction unbound in rat plasma; assay type: ADME, cell-free
[4] = target: Solute carrier organic anion transporter family member 1B1 (Homo sapiens, UniProt Q9Y6L6); assay: Drug uptake assessed as human OATP1B1-mediated drug accumulation by cell-based assay relative to wild type protein; assay type: ADME
Chain of Solute carrier organic anion transporter family member 1B1 (Q9Y6L6 whole entry): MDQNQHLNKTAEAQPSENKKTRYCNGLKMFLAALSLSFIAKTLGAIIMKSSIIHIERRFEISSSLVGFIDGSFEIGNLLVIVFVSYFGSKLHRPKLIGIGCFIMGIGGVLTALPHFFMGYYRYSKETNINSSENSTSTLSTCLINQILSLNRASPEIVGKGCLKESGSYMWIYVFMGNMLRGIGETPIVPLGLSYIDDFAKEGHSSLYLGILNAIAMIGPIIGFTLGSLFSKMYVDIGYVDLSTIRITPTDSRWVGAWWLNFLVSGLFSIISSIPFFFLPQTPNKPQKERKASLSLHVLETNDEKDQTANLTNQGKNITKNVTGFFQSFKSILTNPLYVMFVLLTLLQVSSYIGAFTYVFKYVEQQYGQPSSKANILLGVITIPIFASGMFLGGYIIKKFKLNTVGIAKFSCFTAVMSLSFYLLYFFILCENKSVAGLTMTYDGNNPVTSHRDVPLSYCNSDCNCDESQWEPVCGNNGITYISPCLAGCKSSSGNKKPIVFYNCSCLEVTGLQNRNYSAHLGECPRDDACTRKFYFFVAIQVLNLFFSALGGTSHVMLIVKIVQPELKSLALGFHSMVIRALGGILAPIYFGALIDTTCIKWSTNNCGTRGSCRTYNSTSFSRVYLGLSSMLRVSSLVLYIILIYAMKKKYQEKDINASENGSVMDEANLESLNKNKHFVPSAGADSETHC

[5] = target: Solute carrier organic anion transporter family member 1B3 (Homo sapiens, UniProt Q9NPD5); assay: Drug uptake assessed as human OATP1B3-mediated drug accumulation by cell-based assay relative to wild type protein; assay type: ADME
Chain of Solute carrier organic anion transporter family member 1B3 (Q9NPD5 whole entry): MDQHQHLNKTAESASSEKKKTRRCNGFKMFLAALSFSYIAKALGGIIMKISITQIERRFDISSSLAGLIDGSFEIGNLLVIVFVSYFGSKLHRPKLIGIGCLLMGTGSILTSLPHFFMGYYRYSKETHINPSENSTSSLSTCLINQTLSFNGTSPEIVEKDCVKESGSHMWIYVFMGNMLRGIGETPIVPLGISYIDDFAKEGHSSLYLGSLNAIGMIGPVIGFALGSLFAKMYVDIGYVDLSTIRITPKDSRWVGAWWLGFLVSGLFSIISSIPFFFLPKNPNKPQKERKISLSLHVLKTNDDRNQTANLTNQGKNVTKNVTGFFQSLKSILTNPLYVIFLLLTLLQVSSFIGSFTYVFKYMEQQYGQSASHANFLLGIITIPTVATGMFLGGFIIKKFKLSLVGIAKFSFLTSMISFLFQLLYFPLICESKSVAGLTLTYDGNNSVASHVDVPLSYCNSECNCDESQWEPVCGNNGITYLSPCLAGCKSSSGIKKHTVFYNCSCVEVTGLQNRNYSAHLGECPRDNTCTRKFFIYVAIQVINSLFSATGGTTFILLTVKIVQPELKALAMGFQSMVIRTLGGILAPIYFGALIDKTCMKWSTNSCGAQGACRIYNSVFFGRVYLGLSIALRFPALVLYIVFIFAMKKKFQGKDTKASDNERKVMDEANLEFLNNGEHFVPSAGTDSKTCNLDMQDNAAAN

Cytochrome P450 2C19 = Cytochrome P450 2C19 (Homo sapiens, UniProt P33261); assay: Inhibition of CYP2C19 (unknown origin); assay type: ADME
Chain of Cytochrome P450 2C19 (P33261 whole entry): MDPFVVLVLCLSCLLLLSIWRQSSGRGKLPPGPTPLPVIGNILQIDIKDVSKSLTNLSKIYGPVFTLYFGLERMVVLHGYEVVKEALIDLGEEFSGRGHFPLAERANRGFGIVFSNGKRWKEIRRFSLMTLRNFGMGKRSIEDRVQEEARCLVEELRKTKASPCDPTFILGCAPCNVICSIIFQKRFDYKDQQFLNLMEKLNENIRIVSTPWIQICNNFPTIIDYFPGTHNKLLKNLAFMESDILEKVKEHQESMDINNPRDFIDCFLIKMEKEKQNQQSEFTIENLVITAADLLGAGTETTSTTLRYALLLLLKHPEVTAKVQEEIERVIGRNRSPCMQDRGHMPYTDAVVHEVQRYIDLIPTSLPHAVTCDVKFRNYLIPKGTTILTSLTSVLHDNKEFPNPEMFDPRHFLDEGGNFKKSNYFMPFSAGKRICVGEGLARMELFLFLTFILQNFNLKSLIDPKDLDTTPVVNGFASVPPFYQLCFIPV

[6] = target: Solute carrier family 22 member 6 (Homo sapiens, UniProt Q4U2R8); assay: Inhibition of OAT1 (unknown origin)
Chain of Solute carrier family 22 member 6 (Q4U2R8 whole entry): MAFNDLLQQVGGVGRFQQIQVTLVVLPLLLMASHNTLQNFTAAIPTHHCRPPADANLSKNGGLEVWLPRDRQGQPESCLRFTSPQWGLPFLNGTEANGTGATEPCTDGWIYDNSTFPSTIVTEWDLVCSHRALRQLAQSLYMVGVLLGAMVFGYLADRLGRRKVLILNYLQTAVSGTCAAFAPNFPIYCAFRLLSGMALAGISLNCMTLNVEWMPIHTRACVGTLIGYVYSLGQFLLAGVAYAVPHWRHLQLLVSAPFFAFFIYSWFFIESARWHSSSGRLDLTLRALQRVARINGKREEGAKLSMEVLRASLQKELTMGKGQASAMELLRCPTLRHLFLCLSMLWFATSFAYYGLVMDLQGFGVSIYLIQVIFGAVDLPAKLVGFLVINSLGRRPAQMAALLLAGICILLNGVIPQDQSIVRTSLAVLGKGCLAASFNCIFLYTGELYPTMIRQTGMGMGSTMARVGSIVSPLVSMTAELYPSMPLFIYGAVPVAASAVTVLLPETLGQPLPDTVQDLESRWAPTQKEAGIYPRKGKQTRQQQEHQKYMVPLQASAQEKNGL

[7] = target: Solute carrier family 22 member 11 (Homo sapiens, UniProt Q9NSA0); assay: Inhibition of OAT4 (unknown origin)
Chain of Solute carrier family 22 member 11 (Q9NSA0 whole entry): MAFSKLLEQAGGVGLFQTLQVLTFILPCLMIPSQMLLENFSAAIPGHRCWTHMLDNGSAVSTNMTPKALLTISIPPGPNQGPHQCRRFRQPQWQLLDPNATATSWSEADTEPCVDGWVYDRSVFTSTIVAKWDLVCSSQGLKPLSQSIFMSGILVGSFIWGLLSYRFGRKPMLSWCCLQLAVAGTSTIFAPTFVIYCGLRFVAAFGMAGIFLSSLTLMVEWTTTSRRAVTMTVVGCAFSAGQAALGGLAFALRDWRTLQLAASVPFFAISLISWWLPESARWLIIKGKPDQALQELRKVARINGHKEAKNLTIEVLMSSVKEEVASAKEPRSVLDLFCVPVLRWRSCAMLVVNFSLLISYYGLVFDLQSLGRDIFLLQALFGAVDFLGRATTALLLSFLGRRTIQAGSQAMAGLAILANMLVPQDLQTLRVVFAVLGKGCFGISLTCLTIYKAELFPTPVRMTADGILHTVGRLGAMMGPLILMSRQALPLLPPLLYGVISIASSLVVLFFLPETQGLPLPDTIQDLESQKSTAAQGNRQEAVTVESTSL

[8] = Cytotoxicity against THLE cells; assay type: toxicity, cell-based; details: human
[9] = Mutagenicity in […] by Ames test in absence of […] fraction; assay type: toxicity
[10] = target: Sodium channel protein type 9 subunit alpha (Homo sapiens, UniProt Q15858); assay: Inhibition of NaV1.7 (unknown origin) by electrophysiology assay
Chain of Sodium channel protein type 9 subunit alpha (Q15858 whole entry): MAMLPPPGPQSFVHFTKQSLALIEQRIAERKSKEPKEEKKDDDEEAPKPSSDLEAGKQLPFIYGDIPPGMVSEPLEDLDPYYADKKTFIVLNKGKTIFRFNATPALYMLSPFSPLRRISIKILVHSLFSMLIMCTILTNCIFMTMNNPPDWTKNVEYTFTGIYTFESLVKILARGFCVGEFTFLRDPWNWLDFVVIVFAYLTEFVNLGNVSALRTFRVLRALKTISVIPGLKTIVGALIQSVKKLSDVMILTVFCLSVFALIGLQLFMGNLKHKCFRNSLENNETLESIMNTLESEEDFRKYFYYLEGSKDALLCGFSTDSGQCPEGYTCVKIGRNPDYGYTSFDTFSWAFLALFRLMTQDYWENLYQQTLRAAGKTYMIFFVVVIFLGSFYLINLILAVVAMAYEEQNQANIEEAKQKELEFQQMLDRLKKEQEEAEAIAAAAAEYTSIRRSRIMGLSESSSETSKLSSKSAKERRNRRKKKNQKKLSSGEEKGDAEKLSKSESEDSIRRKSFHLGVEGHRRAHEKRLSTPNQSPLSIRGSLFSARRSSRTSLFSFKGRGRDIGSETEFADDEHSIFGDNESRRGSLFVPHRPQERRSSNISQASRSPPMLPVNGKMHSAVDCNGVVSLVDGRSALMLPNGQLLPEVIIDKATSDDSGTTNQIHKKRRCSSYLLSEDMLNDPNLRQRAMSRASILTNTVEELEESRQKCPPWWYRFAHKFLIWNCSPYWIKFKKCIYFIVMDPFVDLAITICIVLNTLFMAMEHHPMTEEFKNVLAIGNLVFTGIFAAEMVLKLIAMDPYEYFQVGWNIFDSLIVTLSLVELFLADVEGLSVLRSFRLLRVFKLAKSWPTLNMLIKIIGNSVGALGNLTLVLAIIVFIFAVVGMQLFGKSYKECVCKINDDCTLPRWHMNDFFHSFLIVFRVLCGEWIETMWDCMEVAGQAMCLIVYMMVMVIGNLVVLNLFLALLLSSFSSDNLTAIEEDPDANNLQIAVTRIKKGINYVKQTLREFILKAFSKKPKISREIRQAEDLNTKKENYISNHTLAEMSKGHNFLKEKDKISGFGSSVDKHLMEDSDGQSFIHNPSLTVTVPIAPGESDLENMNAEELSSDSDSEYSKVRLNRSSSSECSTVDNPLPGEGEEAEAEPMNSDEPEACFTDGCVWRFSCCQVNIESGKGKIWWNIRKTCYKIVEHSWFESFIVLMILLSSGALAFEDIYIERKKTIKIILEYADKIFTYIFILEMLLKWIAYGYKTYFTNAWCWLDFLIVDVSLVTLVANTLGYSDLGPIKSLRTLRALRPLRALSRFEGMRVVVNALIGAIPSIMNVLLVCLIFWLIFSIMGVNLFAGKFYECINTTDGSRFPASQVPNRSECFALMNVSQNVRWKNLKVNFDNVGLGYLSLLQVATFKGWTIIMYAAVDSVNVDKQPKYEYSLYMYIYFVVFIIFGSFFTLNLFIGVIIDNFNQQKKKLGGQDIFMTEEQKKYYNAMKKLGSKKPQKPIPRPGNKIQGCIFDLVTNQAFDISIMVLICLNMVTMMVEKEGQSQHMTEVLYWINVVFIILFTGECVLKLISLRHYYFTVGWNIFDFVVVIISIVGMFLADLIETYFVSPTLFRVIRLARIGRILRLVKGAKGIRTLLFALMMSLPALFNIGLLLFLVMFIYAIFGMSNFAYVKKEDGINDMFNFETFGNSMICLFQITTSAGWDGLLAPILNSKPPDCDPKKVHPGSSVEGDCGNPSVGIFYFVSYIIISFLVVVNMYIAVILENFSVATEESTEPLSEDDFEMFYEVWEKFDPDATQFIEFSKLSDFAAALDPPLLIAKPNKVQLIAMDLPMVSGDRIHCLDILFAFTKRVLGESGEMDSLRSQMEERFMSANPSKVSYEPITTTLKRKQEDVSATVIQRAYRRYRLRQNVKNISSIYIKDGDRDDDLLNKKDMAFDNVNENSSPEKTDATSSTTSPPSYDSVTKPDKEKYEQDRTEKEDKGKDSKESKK

[11] = Intrinsic clearance in rat hepatocytes assessed per 10^6 cells; assay type: ADME, cell-based, Hepatocyte; details: read-out: CLH
[12] = Intrinsic clearance in dog hepatocytes assessed per 10^6 cells; assay type: ADME, cell-based, Canis lupus familiaris, Hepatocyte; details: read-out: CLH
[13] = Volume of distribution at steady state in rat at 0.76 mg/kg, iv and 2.3 mg/kg, po; assay type: ADME, organism-based; details: in vivo, read-out: Vdss
[14] = Unbound clearance in rat at 0.5 mg/kg, iv and 1 mg/kg, po; assay type: ADME, organism-based; details: in vivo
[15] = Renal clearance in dog; assay type: ADME, Canis lupus familiaris; details: in vivo
[16] = Drug metabolism in human liver microsomes assessed as oxidation of chlorophenyl ring; assay type: ADME
Rattus norvegicus [17] = assay: Toxicity in rat assessed as mortality at 300 mg/kg/day, po measured over 14 days; assay type: organism-based; details: in vivo, 336 h
[18] = Toxicity in po dosed dog measured assessed as drug tolerance measured over 14 days; assay type: organism-based, Canis lupus familiaris; details: in vivo, 336 h
Canis familiaris [19] = assay: Hepatotoxicity in female dog assessed as decrease in alanine aminotransferase levels at >= 100 mg/kg/day, po measured over 14 days; assay type: toxicity, organism-based, Canis lupus familiaris; details: in vivo, 336 h
Canis familiaris [20] = assay: Hepatotoxicity in male dog assessed as pathological changes at >= 30 mg/kg/day, po measured over 14 days; assay type: toxicity, organism-based, Canis lupus familiaris; details: in vivo, 336 h
Canis familiaris [21] = assay: Hepatotoxicity in female dog assessed as pathological changes at >= 100 mg/kg/day, po measured over 14 days; assay type: toxicity, organism-based, Canis lupus familiaris; details: in vivo, 336 h
Rattus norvegicus [22] = assay: Cardiovascular toxicity in rat assessed as decrease in body temperature at 10 mg/kg, po measured over 14 days; assay type: organism-based; details: in vivo, 336 h
[23] = Unbound Cmax in rat at 10 mg/kg, po administered as single dose measured on day 14; assay type: ADME, organism-based; details: in vivo

N#Cc1ccc(Oc2ccc(S(=O)(=O)Nc3ccc(F)cn3)cc2C#N)cc1Cl
microsomal CLint [1]: < 14 µL/min/mg
microsomal CLint [2]: < 13 µL/min/mg
fraction unbound [3]: 0.0021
fold change (FC) [4]: 1.003
fold change (FC) [5]: 1.067
IC50 (Cytochrome P450 2C19): 17.2 µM
IC50 [6]: 14 µM
IC50 [7]: 14 µM
Activity [8]: 103 µM
Activity [9]: Non-Toxic
IC50 [10]: > 30 µM
hepatocyte CLint [11]: 10 µL/min/1e6 cells
hepatocyte CLint [12]: < 6 µL/min/1e6 cells
Vd [13]: 0.25 L/kg
CL free [14]: 137000 mL/day/kg
CL renal [15]: 0.144 mL/day/kg
Drug metabolism [16]: Metabolite_Detected
Activity (Rattus norvegicus [17]): Toxic
Activity [18]: <= 300 mg kg-1
Activity (Canis familiaris [19]): Toxic
Activity (Canis familiaris [20]): Non-Toxic
Activity (Canis familiaris [21]): Non-Toxic
Activity (Rattus norvegicus [22]): Toxic
fCmax [23]: 59 nM
